Results on three molecules are retold here after patent US12428417B2, “Inhibitors of macrophage migration inhibitory factor” (The Brigham and Women's Hospital, Inc., priority 2019, dated 2025).

Assay [1] relates to P. falciparum strain NF54 attB parasites. The assay can be described thus: Invasion assay: synchronized late-stage schizonts added to uninfected RBCs, parasitemia measured by FACS. It counts as cell-based. How it is done:
Experimental protocol: Synchronized late-stage schizonts were added at 1% initial parasitemia to uninfected recipient normal RBCs and parasitemia was measured by FACS. Parasitemia is normalized to the control no-inhibitor condition. Data analyzed by one-way ANOVA. Statistically significant differences are indicated with a star over the bar. Asterisk (*) indicates p<0.01 compared to control (no-inhibitor).
FIG. 2 describes results of invasion assay in presence of titrated amounts of MIF inhibitors. […] All data is normalized to the control no-inhibitor condition. […] Asterisk (*) indicates p<0.01 compared to control (no-inhibitor).
(§1) P. falciparum strain NF54 attB parasites (Dr. Niles, MIT). Synchronized late-stage schizonts were added at 1% initial parasitemia to uninfected recipient normal RBCs and parasitemia was measured by FACS (FIG. 2). […] Given that ibudilast has inhibitory effect on the function of MIF as well as phosphodiesterase 4 (PDE4) in the RBC, it was evaluated whether specific inhibitors of MIF and PDE4 would cause major decline in parasitemia at similar dosages. While inhibition of parasite growth was not observed due to abolishing the function of PDE4 (data not shown), inhibition of the tautomerase activity of MIF in vitro by an irreversible inhibitor of MIF—4-IPP—caused a significant decline in the levels of parasitemia (FIG. 2).

For assay [2], the system named is P. falciparum infected RBC cultures. The assay can be described thus: FACS analysis of infected RBC cultures (schizont stage). Format: cell-based. As to conditions: 48 to 60 hours post infection; data not shown. On the procedure:
as §1
(A flow cytometer gives signals particle by particle.)

The subject of another assay is Pf-infected RBCs. Nature of the assay: Confocal microscopy of Pf-infected RBCs with BODIPY TR lipophilic intracellular staining (egress). Format: cell-based, P. falciparum. The conditions noted are these: treated Pf-infected RBCs; FIG. 3. An excerpt:
One plane of confocal microscopy z-stack is shown.

On to `COC(=O)CC1CC(c2ccc(O)cc2)=NO1` (stereo not shown) [ISO-1], for which the “invasion at a range of concentrations” value in assay [1] (data not shown) was “did not reduce the invasion”.
For `Ic1cc(-c2ccccc2)ncn1` [Example 4-IPP], the “percentage of mature schizont” value in assay [2] is given as “significant increase”. Further, the “state of mature schizonts (egress)” value in the assay with Pf-infected RBCs is “mature schizonts remain encapsulated”. Also, the parasitemia in vitro result in assay [1] (1% initial parasitemia, normal RBCs, FIG. 2) was “significantly lowered parasitemia”. For the same molecule, the “parasitemia after removal of inhibitor 6 h post-infection” value in assay [1] (inhibitor removed 6 h post-infection) is “did not recover the parasitemia”. In addition, the “parasitemia after treating only the recipient RBCs before infection” value in assay [1] (recipient RBCs treated 3 h and 6 h, inhibitor washed off before infection) was “parasitemia at the level of the control condition”.

B1: hu-MIF: exogenous human macrophage migration inhibitory factor added in the invasion assay (protein, UniProt P14174 2-115, looked up)
Macrophage migration …: PMFIVNTNVPRASVPDGFLSELTQQLAQATGKPPQYIAVHVVPDQLMAFGGSSEPCALCSLHSIGKIGGAQNRSYSKLLCGLLAERLRISPDRVYINYYDMNAANVGWNNSTFA
For the molecule B1, the “parasitemia in presence of exogenous protein” value in assay [1] (cells preincubated for up to 6 h, data not shown) is listed as “did not show reduced or increased parasitemia”.
